Test results reported in US3972883A, “1,6-Dimethyl-8β-[2' or 3'-pyrroyloxyethyl or substituted pyrroyloxyethyl]-10α-methoxyergolene compounds” (Societa Farmaceutici Italia S.p.A., priority 1973, dated 1976).

What was measured:
[1] = tested on: lethal effects of Adrenaline; assay: Adrenolytic activity "in vivo": protection against the lethal effects of Adrenaline (Luduena et al.); settings: Rattus norvegicus, po; rats, os, 60 minutes before 200 mcg/Kg Adrenaline endovenous; read-out: ID50 (dose protecting 50% of the animals from the lethal effects of Adrenaline)
Procedure: (§1) For the adrenolytic activity "in vivo" the method of Luduena et al. (Arch. int. Pharmacodyn., 122, 111, 1959) has been used, based on the evaluation of the protective action of the adrenolytic compounds against the lethal effects of Adrenaline.
(§2) The drugs under examination are administered by the endovenous route dissolved in water, and by the oral route they are dissolved or suspended in 5% arabic gum, respectively at 5 and 60 minutes before a fixed dose of 200 mcg/Kg of Adrenaline by the endovenous route.
(§3) Always 10 rats have been employed per group.
(§4) The activity of the drug is expressed as the dose protecting 50% of the animals from the lethal effects of Adrenaline administered by the endovenous route (ED50).

[2] = Toxicity: LD50 by the oral route, 7 days follow-up; settings: mouse, in vivo, mice, os, followed for 7 days
Procedure: (§5) In order to evaluate the toxicity of the drugs under examination, increasing doses are administered to groups of 5-10 mice which are then followed for a period of 7 days.
(§6) For administration by the oral route, the compounds are dissolved or suspended, according to the solubility, in 5% arabic gum. The LD50 expresses the dose of drug which causes the death of 50% of the animals.

[3] = Therapeutic index (LD50/ID50), oral; settings: in vivo, os, LD50 in mice, ID50 in rats
Procedure: as §1, §2, §3, §4, §5, §6

[4] = tested on: contractions caused by Adrenaline in seminal small bladder of Guinea-pig; assay: Adrenolytic activity "in vitro": inhibition of contractions induced by Adrenaline in isolated seminal small bladder; settings: Tyrode, 38°C, 3 minutes of contact, 1 mcg/ml Adrenaline
Procedure: The adrenolytic activity of the new esters has been studied in comparison with that of Nicergoline [1,6-dimethyl-8β-(5'-bromonicotinoyloxymethyl)-10α-methoxyergoline] and of dihydroergotamine. The activity "in vitro" has been determined employing seminal small bladder of Guinea-pig immersed in Tyrode liquid wherein oxygen and 5% carbon dioxide are bubbled.
The bath temperature is maintained constant at 38°C. The contractions induced by Adrenaline are registered on a chimograph by means of an isotonic lever. The activity of the drug under examination is expressed as the concentration in mcg/ml able, after 3 minutes of contact, to inhibit 50% of the contractions caused by 1 mcg/ml of Adrenaline (IC50).

[5] = Pharmacological activity of intermediates, general statement

Row | Structure (SMILES) | ED50 [1] [mg/kg] | LD50 at 168 h [2] [mg/kg] | selectivity ratio [3] | IC50 (concentration inhibiting 50% of the contractions caused by 1 mcg/ml of Adrenaline) [4] [ng/mL] | pharmacological activity [5]
1 | CO[C@]12C[C@@H](CCOC(=O)c3[nH]c(C)cc3C)CN(C)[C@@H]1Cc1cn(C)c3cccc2c13 [1,6-Dimethyl-8β-[3',5'-dimethyl-2'-pyrroyloxyethyl]-10α-methoxyergoline] | 0.12 | 300 | 3750 | – | –
2 | CN1C[C@H](C(=O)N[C@]2(C)O[C@@]3(O)[C@@H]4CCCN4C(=O)[C@H](Cc4ccccc4)N3C2=O)C[C@@H]2c3cccc4[nH]cc(c34)C[C@H]21 [Dihydroergotamine, reference compound] | 15 | – | – | 15 | –
3 | CO[C@]12C[C@@H](CCOC(=O)c3ccc[nH]3)CN(C)[C@@H]1Cc1cn(C)c3cccc2c13 [1,6-Dimethyl-8β-[2'-pyrroyloxyethyl]-10α-methoxyergoline] | 0.06 | 450 | 6600 | – | –
4 | CO[C@]12C[C@@H](CCOC(=O)c3cc[nH]c3C)CN(C)[C@@H]1Cc1cn(C)c3cccc2c13 [1,6-Dimethyl-8β-[2'-methyl-3'-pyrroyloxy-ethyl]-10α-methoxyergoline] | 0.1 | 100 | 1300 | 1 | –
5 | CO[C@]12C[C@@H](CCO)CN(C)[C@@H]1Cc1cn(C)c3cccc2c13 [(V), 1,6-Dimethyl-8β-hydroxyethyl-10α-methoxyergoline] | – | – | – | – | slight pharmacological activity
6 | CO[C@]12C[C@@H](CCOC(=O)c3c(C)cc(C)n3C)CN(C)[C@@H]1Cc1cn(C)c3cccc2c13 [1,6-Dimethyl-8β-[1',3',5'-trimethyl-2'-pyrroyloxyethyl]-10α-methoxyergoline] | 0.1 | 100 | 1300 | – | –
7 | CO[C@]12C[C@@H](COC(=O)c3cncc(Br)c3)CN(C)[C@@H]1Cc1cn(C)c3cccc2c13 [Nicergoline, 1,6-dimethyl-8β-(5'-bromonicotinoyloxymethyl)-10α-methoxyergoline, reference compound] | 7 | 632 | 90 | 1 | –
8 | CCn1cccc1C(=O)OCC[C@H]1CN(C)[C@@H]2Cc3cn(C)c4cccc(c34)[C@@]2(OC)C1 [1,6-Dimethyl-8β-[1'-ethyl-2'-pyrroyloxyethyl]-10α-methoxyergoline] | 0.025 | 180 | 5200 | – | –
